From patent US5198461A, “Isatine derivatives, their preparation and use” (NeuroSearch A/S, priority 1989, dated 1993)

Legend:
[1] = molecular target: 3H-kainate, 3H-AMPA and/or 3H-glycine binding sites; experiment: Kainate, quisqualate (3H-AMPA) and glycine binding assays; conditions: site(s) not specified per compound ('and/or')
Description: The quisqualate binding assay was performed as described by T. Honore et al., Neuroscience Letters 54, 27-32 (1985).
The kainate binding assay was performed as described by T. Honore et al., Neuroscience Letters 65, 47-52 (1986).
The glycine binding assay was performed as described by W. Frost White et al., Journal of Neurochemistry 53(2), 503-512 (1989).

[2] = system: ATPA-induced rigidity in female NMRI mice; experiment: ATPA-induced rigidity; type: in vivo; conditions: Mus musculus, 15 mg/kg ATPA i.v., test compound i.v. or p.o., read-out: ED50, inhibition of ATPA-induced rigidity
Description: The selective quisqualate receptor agonist ATPA induces rigidity in female NMRI mice at doses between 3 and 15 mg/kg and clonic-tonic seizures and death, probably due to respiratory arrest, at doses between 15 and 40 mg/kg after intravenous (i.v.) administration.
ATPA ((RS)-α-amino-3-hydroxy-5-tert-butyl-4-isoxazolepropionic acid) was dissolved in distilled water and test compound was dissolved in a polyoxyl 40 hydrogenated castor oil (5% Cremophor RH™ 40 (BASF)).
Test compound was administered either i.v. 5, 30 or 120 min before or p.o. 30 min before an i.v. administration of 15 mg/kg of ATPA to 8 female NMRI mice per dose and the number of mice experiencing rigidity 5 min later was noted. An ED50 value was calculated from at least three doses of test compound as the dose inhibiting 50% of the mice from having rigidity.

[3] = system: NMDA-induced clonic seizures in male NMRI mice; experiment: NMDA-induced clonic seizures; type: in vivo; conditions: Mus musculus, iv, NMDA icv, test compound i.v. 5 min before, given as 'quisqualate or NMDA-induced convulsions', read-out: ED50, inhibition of NMDA-induced convulsions
Description: NMDA give icv to NMRI mice induces clonic seizures which can be inhibited by NMDA receptor antagonists.
Test compound was given i.v. 5 min before a 0.5 μg icv administration of NMDA to 10 male NMRI mice per dose. The number of mice experiencing clonic seizures within the next 2 min was noted. An ED50 value was calculated as the dose inhibiting 50% of the mice from having clonic seizures.

[4] = system: quisqualate-induced clonic seizures in male DBA/2 mice; experiment: Quisqualate-induced clonic seizures; type: in vivo; conditions: Mus musculus, iv, quisqualate icv, test compound i.v. 5 min before, given as 'quisqualate or NMDA-induced convulsions', read-out: ED50, inhibition of quisqualate-induced convulsions
Description: Quisqualate given icv (intracerebroventricular) to DBA/2 mice induces clonic seizures which can be inhibited by both NMDA and non-NMDA receptor antagonists after i.v. administration.
Test compound was given i.v. 5 min before a 20 pg icv administration of quisqualate to 10 male DBA/2 mice (weighing 10-12 g) per dose. The number of mice experiencing clonic seizures within the next 2 min was noted. An ED50 value was calculated as the dose inhibiting 50% of the mice from having clonic seizures.

[5] = system: cocaine-induced hypermotility in female NMRI mice; experiment: Cocaine-induced hypermotility; type: in vivo; conditions: Mus musculus, po, administered orally, 25 mg/kg cocaine i.p., read-out: ED50, antagonism of cocaine-induced hypermotility
Source text: Quisqualate and kainate administered locally induce an increase in dopamine release in nucleus accumbens and nucleus caudatus accompanied by stereotype behaviour such as hyperlocomotion, rearing, sniffing and grooming. These effects can be inhibited by selective quisqualate antagonists administered locally by the micro-dialyses method.
Also the dopamine uptake inhibitor cocaine administered s.c. induce hypermotility which can be inhibited by an administration of the glutamate antagonist GDEE into nucleus accumbens.
Test compound was administered orally at doses of 0.1, 1, 10 and 30 mg/kg 30 min before the administration of 25 mg/kg cocaine i.p. to female NMRI mice and the locomotor activity of 2 mice per box was measured for the next 2 hours by use of 8 infrared photobeams per box. The mice had been adapted to the box for at least 16 hours to avoid exploratory motility (neophobia).

SMILES	IC50 [1] [µM]	other results
O=C1Nc2c(ccc3ccccc23)C1=NO [1H-benz[g]indole-2,3-dione-3-oxime]	10 to 100	–
CCOC(=O)CN1C(=O)C(=NOC)c2cc([N+](=O)[O-])cc([N+](=O)[O-])c21 [5,7-dinitro-1-(ethoxycarbonylmethyl)-1H-indole-2,3-dione-3-(O-methyloxime)]	–	ED50 [2]: 0.1 to 10 mg/kg; ED50 [3]: 0.1 to 10 mg/kg; ED50 [4]: 0.1 to 10 mg/kg
CON=C1C(=O)N(C)c2c1cc([N+](=O)[O-])cc2[N+](=O)[O-] [5,7-dinitro-1-methyl-1H-indole-2,3-dione-3-(O-methyloxime)]	–	ED50 [2]: 0.1 to 10 mg/kg; ED50 [3]: 0.1 to 10 mg/kg; ED50 [4]: 0.1 to 10 mg/kg; ED50 [5]: 0.5 to 1 mg/kg
CN1C(=O)C(=NO)c2cc([N+](=O)[O-])cc([N+](=O)[O-])c21 [5,7-dinitro-1-methyl-1H-indole-2,3-dione-3-oxime]	10 to 100	–
O=C1Nc2c(cc([N+](=O)[O-])cc2[N+](=O)[O-])C1=NO [5,7-dinitro-1H-indole-2,3-dione-3-oxime]	10 to 100	–
CNS(=O)(=O)c1cc2c(c3c1CCCC3)NC(=O)C2=NO [5-(N-methylsulphamoyl)-6,7,8,9-tetrahydro-1H-benz[g]indole-2,3-dione-3-oxime]	10 to 100	–
O=C1Nc2c(cc(S(=O)(=O)NOCc3ccccc3)c3c2CCCC3)C1=NO [5-(benzyloxysulphamoyl)-6,7,8,9-tetrahydro-1H-benz[g]indole-2,3-dione-3-oxime]	10 to 100	–

Now from value to compound, other results behind:

IC50 [1] [µM]	SMILES	other results
10 to 100	O=C1Nc2c(cc(Br)cc2[N+](=O)[O-])C1=NO [5-bromo-7-nitro-1H-indole-2,3-dione-3-oxime]	–
10 to 100	O=C1Nc2c(cc([N+](=O)[O-])c3c2CCCC3)C1=NO [5-nitro-1H-6,7,8,9-tetrahydro-benz[g]indole-2,3-dione-3-oxime]	–
10 to 100	O=C1Nc2c(cc([N+](=O)[O-])c3ccccc23)C1=NO [5-nitro-1H-benz[g]indole-2,3-dione-3-oxime]	–
10 to 100	O=C1Nc2ccc([N+](=O)[O-])cc2C1=NO [5-nitro-1H-indole-2,3-dione-3-oxime]	–
